Assay results published in patent US20250304620A1, “ANTIMICROBIAL PEPTIDE AND APPLICATION THEREOF” (priority 2023, published 2025).
Where two headings read alike, the source gives them in different places. Marks after values point to notes of the source that are not given here. Non-standard residues stand in square brackets, D forms with d. Residues, ends and D or L forms follow the SMILES beside them. PEG200 = polyethylene glycol 200, conjugated to the C-terminus; PEG500 = polyethylene glycol 500, conjugated to the C-terminus; dPhe(3,4-F2) = N[C@H](Cc1ccc(F)c(F)c1)C(=O)O; 2Nal = N[C@@H](Cc1ccc2ccccc2c1)C(=O)O; d2Nal = N[C@H](Cc1ccc2ccccc2c1)C(=O)O; PEG1000 = polyethylene glycol 1000

Columns and labels:
rabbit red blood cells = type: cell-based; settings: red cells of rabbit, 1 h
[1] = system: Escherichia coli ATCC 25922; experiment: Oral formulations on mice with systemic bacterial infection; type: in vivo, ICR mice; settings: three times a day for 7 days; for Number of mice that died on each day after infection: day 4 / Number of mice that died on each day after infection: day 5 / Number of mice that died on each day after infection: day 6 / Number of mice that died on each day after infection: day 7 / Number of mice that died on each day after infection: day 8 / Average survival times (Days): n = 10; for Average survival times (Days): observed for 14 d; for survival time of mice infected with Escherichia coli: gavage, observed 14 d
Outline: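 Survival time and deaths were logged over a 14 d observation after oral gavage dosing (by body weight, thrice daily, 7 days, starting right after infection). Model: mixed-sex ICR mice, n=10 per group, intraperitoneal injection of E. coli ATCC 25922 suspension (0.2 mL, 1×10^7 CFU/mL).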

[2] = system: Methicillin-sensitive Staphylococcus aureus (NRS 384); type: in vivo, ICR mice; settings: 0.1 mL twice a day for 4 days, mouse back skin infection
Protocol: (§1) Both female and male ICR mice were used in the test, half of the female and male mice were taken and randomly assigned into groups, with 10 mice in each group, and kept in separate cages. The mice were divided into a blank group, a model group, a positive control Methicillin group, and topical formulation groups of AMPs LV-1 to LV-30. Suspensions of Methicillin-sensitive Staphylococcus aureus (NRS 384) and Methicillin-resistant Staphylococcus aureus (MRSA) were prepared, and their concentrations were adjusted to a concentration of 5×10^6 CFU/mL for subsequent use. Hair on backs of the mice was shaved with a shaver, wound was created on back skin of each mouse using a biopsy punch, and the wound was then infected with Methicillin-sensitive Staphylococcus aureus and Methicillin-resistant Staphylococcus aureus (0.1 mL, 5×10^6 CFU/mL) to establish infection models. Except for the blank group and the model group, all other groups received corresponding topical formulations applied directly to the infected areas, with a dose of 0.1 mL, twice a day for 4 consecutive days. On the day following the final administration, skin from the infected sites of each group was aseptically collected, and an antibacterial rate was calculated.

[3] = system: Methicillin-resistant Staphylococcus aureus (MRSA); type: in vivo, ICR mice; settings: 0.1 mL twice a day for 4 days, mouse back skin infection
Protocol: as §1

Compound	MHC (minimum hemolytic concentration, lowest concentration causing 10% hemolysis) (rabbit red blood cells) [µg/mL]	Number of mice that died on each day after infection: day 4 ([1]; 1 mg/kg gavage) [Mouse]	Number of mice that died on each day after infection: day 5 ([1]; 1 mg/kg gavage) [Mouse]	Number of mice that died on each day after infection: day 6 ([1]; 1 mg/kg gavage) [Mouse]	Number of mice that died on each day after infection: day 7 ([1]; 1 mg/kg gavage) [Mouse]	Number of mice that died on each day after infection: day 8 ([1]; 1 mg/kg gavage) [Mouse]	Average survival times (Days) ([1]; 1 mg/kg gavage)	Inhibition rate against Methicillin-sensitive Staphylococcus aureus (%) ([2]; topical formulation 0.2 mg/mL)	Inhibition rate against Methicillin-sensitive Staphylococcus aureus (%) ([2]; topical formulation 1 mg/mL)	Inhibition rate against Methicillin-sensitive Staphylococcus aureus (%) ([2]; topical formulation 5 mg/mL)	Inhibition rate against Methicillin-resistant Staphylococcus aureus (%) ([3]; topical formulation 0.2 mg/mL)	Inhibition rate against Methicillin-resistant Staphylococcus aureus (%) ([3]; topical formulation 1 mg/mL)	Inhibition rate against Methicillin-resistant Staphylococcus aureus (%) ([3]; topical formulation 5 mg/mL)	also measured
CC(=O)N[C@H](CCCNC(=N)N)C(=O)N[C@H](CCCCN)C(=O)N[C@H](CC(C)C)C(=O)N[C@H](CC(C)C)C(=O)N[C@H](Cc1ccc2ccccc2c1)C(=O)N[C@H](CCCNC(=N)N)C(=O)N[C@H](CC(C)C)C(=O)N[C@H](CCCCN)C(=O)N[C@H](Cc1ccc2ccccc2c1)C(=O)N[C@H](CCCNC(=N)N)C(=O)N[C@H](CCCNC(=N)N)C(N)=O [LV-22] (Ac-[dR][dK][dL][dL][d2Nal][dR][dL][dK][d2Nal][dR][dR]-NH2)	>1000	0	2	1	1	2	9.5** Days							
CC(=O)N[C@H](CCCCN)C(=O)N[C@H](CCCNC(=N)N)C(=O)N[C@H](CC(C)C)C(=O)N[C@H](CC(C)C)C(=O)N[C@H](Cc1ccc2ccccc2c1)C(=O)N[C@H](CCCCN)C(=O)N[C@H](CC(C)C)C(=O)N[C@H](CCCCN)C(=O)N[C@H](Cc1ccc2ccccc2c1)C(=O)N[C@H](CCCCN)C(=O)N[C@H](CCCNC(=N)N)C(N)=O [LV-23] (Ac-[dK][dR][dL][dL][d2Nal][dK][dL][dK][d2Nal][dK][dR]-NH2)	>1000	2	1	1	0	1	9.7** Days							
CC(=O)N[C@H](CCCNC(=N)N)C(=O)N[C@H](CCCNC(=N)N)C(=O)N[C@H](CC(C)C)C(=O)N[C@H](CC(C)C)C(=O)N[C@H](Cc1ccc2ccccc2c1)C(=O)N[C@H](CCCCN)C(=O)N[C@H](CC(C)C)C(=O)N[C@H](CCCCN)C(=O)N[C@H](Cc1ccc2ccccc2c1)C(=O)N[C@H](CCCCN)C(=O)N[C@H](CCCNC(=N)N)C(N)=O [LV-24] (Ac-[dR][dR][dL][dL][d2Nal][dK][dL][dK][d2Nal][dK][dR]-NH2)	>1000	1	1	0	2	1	10.1*** Days							
CC(=O)N[C@H](CCCCN)C(=O)N[C@H](CCCCN)C(=O)N[C@H](CC(C)C)C(=O)N[C@H](CC(C)C)C(=O)N[C@H](Cc1ccc(F)c(F)c1)C(=O)N[C@H](CCCNC(=N)N)C(=O)N[C@H](CC(C)C)C(=O)N[C@H](CCCCN)C(=O)N[C@H](Cc1ccc(F)c(F)c1)C(=O)N[C@H](CCCNC(=N)N)C(=O)N[C@H](CCCCN)C(N)=O [LV-25] (Ac-[dK][dK][dL][dL][dPhe(3,4-F2)][dR][dL][dK][dPhe(3,4-F2)][dR][dK]-NH2)	>1000	1	1	0	1	1	10.8*** Days							Number of mice that died on each day after infection: day 4 ([1]; 0.2 mg/kg gavage): 1 Mouse; Number of mice that died on each day after infection: day 5 ([1]; 0.2 mg/kg gavage): 1 Mouse; Number of mice that died on each day after infection: day 6 ([1]; 0.2 mg/kg gavage): 2 Mouse; Number of mice that died on each day after infection: day 7 ([1]; 0.2 mg/kg gavage): 2 Mouse; Number of mice that died on each day after infection: day 8 ([1]; 0.2 mg/kg gavage): 1 Mouse; Average survival times (Days) ([1]; 0.2 mg/kg gavage): 8.5** Days; Number of mice that died on each day after infection: day 4 ([1]; 5 mg/kg gavage): 0 Mouse; Number of mice that died on each day after infection: day 5 ([1]; 5 mg/kg gavage): 3 Mouse; Number of mice that died on each day after infection: day 6 ([1]; 5 mg/kg gavage): 0 Mouse; Number of mice that died on each day after infection: day 7 ([1]; 5 mg/kg gavage): 2 Mouse; Number of mice that died on each day after infection: day 8 ([1]; 5 mg/kg gavage): 0 Mouse; Average survival times (Days) ([1]; 5 mg/kg gavage): 9.9** Days; survival time of mice infected with Escherichia coli [1]: superior to those of the Levofloxacin group
Ac-RKLLXRLKXRK-PEG200 [LV-26] (Ac-RKLL[2Nal]RLK[2Nal]RK-PEG200) [polyethylene glycol 200 conjugated to C-terminal; X=3-(2-naphthyl)-alanine]		2	1	0	1	1	9.8** Days	96.35	96.92	97.87	86.51	86.79	87.56	
Ac-RKLLXRLKXRK-PEG500 [LV-27] (Ac-RKLL[2Nal]RLK[2Nal]RK-PEG500) [polyethylene glycol 500 conjugated to C-terminal; X=3-(2-naphthyl)-alanine]		0	1	1	0	1	11.7**** Days	97.01	98.74	97.65	86.50	89.66	88.02	Number of mice that died on each day after infection: day 4 ([1]; 0.2 mg/kg gavage): 1 Mouse; Number of mice that died on each day after infection: day 5 ([1]; 0.2 mg/kg gavage): 1 Mouse; Number of mice that died on each day after infection: day 6 ([1]; 0.2 mg/kg gavage): 2 Mouse; Number of mice that died on each day after infection: day 7 ([1]; 0.2 mg/kg gavage): 1 Mouse; Number of mice that died on each day after infection: day 8 ([1]; 0.2 mg/kg gavage): 0 Mouse; Average survival times (Days) ([1]; 0.2 mg/kg gavage): 9.8** Days; Number of mice that died on each day after infection: day 4 ([1]; 5 mg/kg gavage): 0 Mouse; Number of mice that died on each day after infection: day 5 ([1]; 5 mg/kg gavage): 2 Mouse; Number of mice that died on each day after infection: day 6 ([1]; 5 mg/kg gavage): 1 Mouse; Number of mice that died on each day after infection: day 7 ([1]; 5 mg/kg gavage): 0 Mouse; Number of mice that died on each day after infection: day 8 ([1]; 5 mg/kg gavage): 0 Mouse; Average survival times (Days) ([1]; 5 mg/kg gavage): 11.4**** Days; survival time of mice infected with Escherichia coli [1]: superior to those of the Levofloxacin group
Ac-RKLLXRLKXRK-PEG1000 [LV-28] (Ac-RKLL[2Nal]RLK[2Nal]RK-PEG1000) [polyethylene glycol 1000 conjugated to C-terminal; X=3-(2-naphthyl)-alanine]		1	2	1	1	0	9.7** Days	96.03	96.75	97.82	86.23	87.81	88.66	
